Data on six compounds can be found in patent US8580517B2, “Biosensor and use thereof to identify therapeutic drug molecules and molecules binding orphan receptors” (priority 2003, dated 2013).

Entries after “also recorded” stand apart in the source; their conditions may differ.

Common to all, as to format: cell-based
The target of assay [1] is T1, M2 muscarinic acetylcholine receptors (Homo sapiens, UniProt P08172).
T1 construct: expressed in transfected cells
T1 sequence (P08172 1-466): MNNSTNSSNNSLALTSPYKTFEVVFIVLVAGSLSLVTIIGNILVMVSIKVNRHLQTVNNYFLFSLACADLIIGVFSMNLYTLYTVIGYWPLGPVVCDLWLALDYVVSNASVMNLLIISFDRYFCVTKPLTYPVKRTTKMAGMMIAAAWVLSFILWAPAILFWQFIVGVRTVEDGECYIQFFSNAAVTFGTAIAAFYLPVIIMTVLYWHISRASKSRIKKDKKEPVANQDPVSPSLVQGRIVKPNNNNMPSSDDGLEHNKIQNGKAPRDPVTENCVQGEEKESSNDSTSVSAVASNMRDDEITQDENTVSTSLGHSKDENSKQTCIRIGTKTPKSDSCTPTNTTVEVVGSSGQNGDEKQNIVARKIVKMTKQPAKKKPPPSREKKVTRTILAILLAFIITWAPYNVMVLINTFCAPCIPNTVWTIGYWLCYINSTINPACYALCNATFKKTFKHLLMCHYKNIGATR
In words: G protein biosensor FRET (CY/CC) imaging in CHO cells stably expressing M2 receptor. The note with it: for FRET signal intensity on addition of the molecule: 100 μM, α-CFP/β-YFPγ biosensor; for FRET signal intensity on repeated addition of agonist and antagonist: Go biosensor, same cell, repeated additions; for CC emission intensity / CY emission intensity: carbachol 100 μM, then atropine 100 μM. As for the experimental part: All were transferred to pDEST12.2 mammalian expression vectors following the manufacturer's instructions (Invitrogen). […] Competent CHO cells expressing M2 were competently transfected with three pDEST12.2 carrying αo-CFP, β1-YFP and γ5. Stable transfectants were selected with G418 and coexpressors were isolated by flow cytometry and confirmed by differential fluorescence microscopy.
(§1) Microscopy, image acquisition and FRET analysis (i.e. image capture, recording and analysis) were carried out as follows (generally following the illustration in FIG. 3). Cells were seeded on glass coverslips (25 mm #1 from Warner Instruments) in 35 mm dishes and cultured overnight for imaging. Coverslips containing cells were mounted in a perfusion chamber of 0.36 ml internal volume (RC-21BR from Warner Instrument Corporation, 1141 Dixwell Ave., Hamden, Conn. 06514) containing Hank's Buffered Saline Solution (HBSS) supplemented with 10 mM Hepes pH 7.4 and 1 mg glucose/ml. The perfusion chamber was stage-mounted in an upright Zeiss Axioscope fluorescence microscope.
Agonists, antagonists or a molecule in the HBSS solution were injected manually (or using an automated valve based system driven pneumatically or by gravity) at a rate of about 2 ml/min for 45 seconds through a secondary inlet of the chamber. Images were acquired at the indicated times. Cells were illuminated with a 50 W mercury lamp (or a 100 W mercury lamp) through a 20% neutral density filter. The filter wheels were run by a Sutter Lambda 10-2 device, a high speed excitation filter wheel that utilizes a direct stepper motor. (Sutter Instrument Company, 51 Digital Drive, Novato, Calif. 94949). In an aspect, power to operate instruments such as the microscope, pumps, motor(s), camera(s), computer(s) control system is supplied by 110 volt electric which is supplied to the instruments and turned on at the startup.
Filters were used in combination with appropriate beam splitters in the filter cube. For CC (cyan) images: D436/20 excitation (x), D480/40 emission (m) and 455DCLP beam splitter; for CY (FRET) images: D436/20x, D535/30m and 455DCLP beam splitter; for YY (yellow) images: the filters D500/20x, D535/30m and 515LP beam splitter. All filters were from Chroma. Images were acquired using a Hamamatsu CCD Orca-ER Camera with 4×4 binning. Exposure times were 1 sec for each CC or CY image. Images were acquired and captured of the FRET signal every 15 sec for a total of 4 or 6 minutes and stored as 12-bit gray scale image-stacks using MetaVue/Metamorph software (Universal Imaging Corporation, 402 Boot Road, Downington, Pa. 19335). Both camera and filter wheels were controlled peripherally using MetaVue from a Dell Computer Workstation (Dell Computer, Houston, Tex.) Images were processed using Metamorph (Universal Imaging) in a Dell Computer Workstation. […] Average intensities in these regions were measured. Maximum intensity per pixel in selected regions were ensured to be lower than the maximum value on the available 12-bit gray scale (4095). Ratios of the CY over CC intensities from these regions were plotted to obtain the FRET profiles.
Agonist concentration dependence of the decrease in the FRET signal: Images (emission spectra) of live functional biosensor cells were captured and recorded as above for about six minutes. […] The regression lines were drawn using GraphPad (Prizm). The percentage of activation by submaximal doses was determined by the formula 100(Rx−Ro)/(Rm−Ro). Rx, Ro and Rm are the numerical values of the respective regression lines at the 210 second elapsed time point where Ro was the initial baseline, Rx was the submaximal response and Rm was the maximal response.

The test system of assay [2] is human adenosine receptors. Kind of assay: G protein biosensor FRET profile in biosensor cells expressing adenosine receptor. The note with it: 50 μM. As for the experimental part:
as §1
(§2) Agonists, antagonists or a molecule in the HBSS solution were injected manually (or using an automated valve based system driven pneumatically or by gravity) at a rate of about 2 ml/min for 45 seconds through a secondary inlet of the chamber. Images were acquired at the indicated times. Cells were illuminated with a 50 W mercury lamp (or a 100 W mercury lamp) through a 20% neutral density filter. The filter wheels were run by a Sutter Lambda 10-2 device, a high speed excitation filter wheel that utilizes a direct stepper motor. […]
(§3) Filters were used in combination with appropriate beam splitters in the filter cube. […] Average intensities in these regions were measured. […]

Assay [3] addresses T1, M2 muscarinic acetylcholine receptors. In words: G protein biosensor FRET (CY/CC) imaging in CHO cells stably expressing M2 receptor. The note with it: biosensor with CFP tagged α, YFP tagged γ, untagged β subunit.
For assay [4], the target named is T2, human serotonin receptors (Type 1A) (Homo sapiens, UniProt P08908).
T2 construct: expressed in transfected cells; host or cells: Biosensor cells
T2 sequence (P08908 1-422): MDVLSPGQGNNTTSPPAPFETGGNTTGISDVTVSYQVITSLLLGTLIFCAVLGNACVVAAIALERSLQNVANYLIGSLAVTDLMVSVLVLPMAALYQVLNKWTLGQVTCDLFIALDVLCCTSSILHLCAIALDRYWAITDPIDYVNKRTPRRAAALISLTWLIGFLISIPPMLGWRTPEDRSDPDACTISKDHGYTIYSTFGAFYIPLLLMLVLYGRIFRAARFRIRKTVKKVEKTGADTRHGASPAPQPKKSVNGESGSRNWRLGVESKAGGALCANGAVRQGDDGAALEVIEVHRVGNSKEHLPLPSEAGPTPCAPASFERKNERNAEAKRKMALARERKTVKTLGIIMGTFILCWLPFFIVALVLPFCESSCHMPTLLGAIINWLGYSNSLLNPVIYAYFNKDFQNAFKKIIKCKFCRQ
In words: G protein biosensor FRET profile in biosensor cells expressing serotonin receptors. As for the experimental part:
as §1, §2, §3

For `CC(C)NCC(O)c1ccc(O)c(O)c1` (centres unmarked) [Isoproterenol, isoproterenol], the “FRET signal intensity on addition of the molecule” value in assay [1] is on record as “no effect on FRET signal intensity”.

Consider `OC[C@H]1O[C@@H](n2cnc3c(NC4CCCCC4)ncnc32)[C@H](O)[C@@H]1O` [adenosine N6-Cyclohexyl], for which, in assay [2], the “FRET signal intensity on addition of agonist” value was “decreased the FRET signal intensity significantly”.

On to `CN1[C@@H]2CC[C@H]1C[C@@H](OC(=O)C(CO)c1ccccc1)C2` (some centres unmarked) [atropine], for which, in assay [1], the “FRET signal intensity on repeated addition of agonist and antagonist” value was “increases”; the CC emission intensity entry is reported as “CC emission intensity decreases”; the CY emission intensity entry is “increases”. The “carbachol-induced loss of FRET after pretreatment with antagonist” value in assay [1] (atropine 10 μM present, carbachol 100 μM added) is “no longer elicited the loss of FRET”. The “FRET signal intensity on addition of antagonist after agonist” value in assay [1] (atropine 100 μM after carbachol 100 μM) is “FRET signal intensity increases strikingly”.

In the case of `C[N+](C)(C)CCOC(N)=O` [carbachol], the “FRET signal intensity on addition of agonist” value in assay [3] is reported as “decrease in FRET signal intensity”. Further, in assay [1], the “FRET signal intensity on addition of the molecule” value is recorded as “reduced FRET signal intensity; also recorded: FRET signal intensity decreases”; the “FRET signal intensity on repeated addition of agonist and antagonist” value is “decreases”; the CC emission intensity result is listed as “CC emission intensity increases”; the CY emission intensity entry is given as “CY emission intensity decreases”.

For the compound `CC(C)(C)NCC(O)COc1cccc2[nH]c(C#N)cc12` (centres unmarked) [cyanopindolol], the “FRET signal intensity on addition of antagonist after agonist” value in assay [4] (cyanopindolol 150 μM after serotonin 20 μM) is given as “increase in the FRET signal intensity”.

With `NCCc1c[nH]c2ccc(O)cc12` [serotonin], the “FRET signal intensity on addition of agonist” value in assay [4] (20 μM) is on record as “decreased the FRET signal intensity significantly; also recorded: decrease in the FRET signal intensity”.
